Test results: US20260263547A1, “COMPOSITION FOR PREVENTING, AMELIORATING, OR TREATING ARTHRITIS, CONTAINING POTENTILLA CHINENSIS EXTRACT OR APIGENIN-7-O-GLUCURONIDE AS ACTIVE INGREDIENT” (BELABELBIO INC., priority 2023, published 2026)

Columns and labels:
[1] = test system: nitric oxide (NO) production; assay: LPS-induced nitric oxide (NO) production in RAW264.7 macrophages (Griess reagent); assay type: cell-based; settings: LPS 500 ng/ml, 24 hours, extract 50, 100, 200 ppm, apigenin-7-O-glucuronide 50, 100, 200 μM
Protocol: To confirm the NO-reducing effect of the extract of Potentilla chinensis from Example 1 and apigenin-7-O-glucuronide from Example 2, an inflammatory response was induced with LPS and subsequent changes in NO were measured. Specifically, RAW264.7 macrophages were obtained from the American Type Culture Collection (ATCC, MD, USA) and cultured in DMEM (Dulbecco's Modified Eagle's Medium) containing 10% FBS and 1% antibiotic-antimycotic under 5% CO2 at 37° C. The cells were seeded into 6-well plates at a density of 8.0×10^5 cells/1.5 mL/well and allowed to adhere for 24 hours, then treated with LPS (500 ng/ml) to induce inflammation. The extract of Potentilla chinensis from Example 1 was added at concentrations of 50, 100, and 200 ppm, and apigenin-7-O-glucuronide from Example 2 was added at concentrations of 50, 100, and 200 μM, followed by incubation for 24 hours. Next, 100 μL of the culture supernatant was transferred to a 96-well plate, mixed with 100 μL of Griess reagent (0.1% N-(1-naphtyl)ethylenediamine, 1% sulfanilamide), and reacted for 10 minutes. The absorbance of the resulting azo-derivative was measured at 540 nm using a microplate reader (BioTek, Vermont, USA). The measured absorbance was converted into nitrite concentration using a standard curve prepared with sodium nitrite dilutions, and the amount of NO produced was calculated.

[2] = test system: MMP-1; assay: PMA-induced MMP-1 secretion in SW-1353 chondrocytes (ELISA); assay type: cell-based, Human; settings: PMA 50 ng/mL, 24 hours, extract 50, 100, 200 ppm, apigenin-7-O-glucuronide 50, 100, 200 μM
Protocol: To evaluate the inhibitory efficacy of the extract of Potentilla chinensis from Example 1 and apigenin-7-O-glucuronide from Example 2 on PMA-induced MMP-1 production in chondrocytes, the amount of MMP-1 secreted was measured using a Human MMP-1 ELISA kit (ab100603, Abcam, USA). Specifically, SW-1353 chondrocytes were obtained from the American Type Culture Collection (ATCC, MD, USA) and cultured in DMEM medium containing 10% FBS and 1% antibiotic-antimycotic under 5% CO2 at 37° C. The cells were seeded into 6-well plates at a density of 2.0×10^5 cells/2.0 mL/well and allowed to adhere for 24 hours, then treated with PMA (50 ng/mL) in DMEM. The extract of Potentilla chinensis from Example 1 was treated at concentrations of 50, 100, and 200 ppm, and apigenin-7-O-glucuronide from Example 2 was treated at concentrations of 50, 100, and 200 μM, followed by incubation for 24 hours. After 24 hours, the amount of MMP-1 in the supernatant was quantified using the ELISA kit, and the results are shown in FIGS. 6A and 6B.

[3] = test system: Collagen Type II Alpha 1; assay: IL-1β-induced Collagen Type II Alpha 1 synthesis in SW-1353 chondrocytes (ELISA); assay type: cell-based, Human; settings: IL-1β 40 ng/ml, 24 hours, extract 50, 100, 200 ppm, apigenin-7-O-glucuronide 50, 100, 200 μM
Protocol: To evaluate the stimulatory efficacy of the extract of Potentilla chinensis from Example 1 and apigenin-7-O-glucuronide from Example 2 on IL-1β-induced Collagen Type II Alpha 1 synthesis in chondrocytes, the secretion of Collagen Type II Alpha 1 was measured using a Human Collagen II Alpha 1 ELISA kit (NBP2-75853, Novus, USA). Specifically, SW-1353 chondrocytes were obtained from the American Type Culture Collection (ATCC, MD, USA) and cultured in DMEM medium containing 10% FBS and 1% antibiotic-antimycotic under 5% CO2 at 37° C. The cells were seeded into 6-well plates at a density of 2.0×10^5 cells/2.0 mL/well and allowed to adhere for 24 hours, then treated with IL-1β (40 ng/ml) in DMEM. The extract of Potentilla chinensis from Example 1 was treated at concentrations of 50, 100, and 200 ppm, and apigenin-7-O-glucuronide from Example 2 was treated at concentrations of 50, 100, and 200 μM, followed by incubation for 24 hours. After 24 hours, the amount of Collagen II Alpha 1 in the supernatant was quantified using the ELISA kit, and the results are shown in FIGS. 9A and 9B.

[4] = test system: MMP-9; assay: PMA-induced MMP-9 secretion in SW-1353 chondrocytes (ELISA); assay type: cell-based, Human; settings: PMA 50 ng/mL, 24 hours, apigenin-7-O-glucuronide 50, 100, 200 μM
Protocol: To evaluate the inhibitory efficacy of apigenin-7-O-glucuronide from Example 2 on PMA-induced MMP-9 production in chondrocytes, the amount of MMP-9 secreted was measured using a Human MMP-9 ELISA kit (ab246539, Abcam, USA). Specifically, SW-1353 chondrocytes were obtained from the American Type Culture Collection (ATCC, MD, USA) and cultured in DMEM medium containing 10% FBS and 1% antibiotic-antimycotic under 5% CO2 at 37° C. The cells were seeded into 6-well plates at a density of 2.0×10^5 cells/2.0 mL/well and allowed to adhere for 24 hours, then treated with PMA (50 ng/mL) in DMEM. The extract of Potentilla chinensis from Example 1 was treated at concentrations of 50, 100, and 200 ppm, and apigenin-7-O-glucuronide from Example 2 was treated at concentrations of 50, 100, and 200 μM, followed by incubation for 24 hours. After 24 hours, the amount of MMP-1 in the supernatant was quantified using the ELISA kit, and the results are shown in FIG. 8.

[5] = test system: IL-1β mRNA; assay: LPS-induced IL-1β mRNA expression in RAW264.7 macrophages (real-time PCR); assay type: cell-based; settings: LPS 500 ng/mL, 24 hours, extract 50, 100, 200 ppm, apigenin-7-O-glucuronide 50, 100, 200 μM
Protocol: (§1) Specifically, RAW264.7 macrophages were obtained from the American Type Culture Collection (ATCC, MD, USA) and cultured in DMEM medium containing 10% FBS and 1% antibiotic-antimycotic under 5% CO2 at 37° C. The cells were seeded into 6-well plates at a density of 8.0×10^5 cells/1.5 mL/well and allowed to adhere for 24 hours, then treated with LPS (500 ng/mL) in DMEM to induce inflammation. The extract of Potentilla chinensis from Example 1 was treated at concentrations of 50, 100, and 200 ppm, and apigenin-7-O-glucuronide from Example 2 was treated at concentrations of 50, 100, and 200 μM, followed by incubation for 24 hours. After 24 hours, IL-1β mRNA was extracted from the cells, synthesized into cDNA, and quantitative real-time PCR was performed using specific primers to evaluate the expression level of IL-1β.

[6] = test system: COX-2 mRNA; assay: LPS-induced COX-2 mRNA expression in RAW264.7 macrophages (real-time PCR); assay type: cell-based; settings: LPS 500 ng/mL, 24 hours, extract 50, 100, 200 ppm, apigenin-7-O-glucuronide 50, 100, 200 μM
Protocol: as §1, with “To confirm the inhibitory efficacy of the extract of Potentilla chinensis from Example 1 and apigenin-7-O-glucuronide from Example 2 on LPS-induced COX-2 mRNA expression, the expression level of COX-2 mRNA was measured using real-time polymerase chain reaction (PCR). Specifically,” for “Specifically,”, “cells/2.0” for “cells/1.5”, “COX-2” for “IL-1β”, “COX-2.” for “IL-1β.”

Compound: O=C(O)[C@H]1O[C@@H](Oc2cc(O)c3c(=O)cc(-c4ccc(O)cc4)oc3c2)[C@H](O)[C@@H](O)[C@@H]1O [apigenin-7-O-glucuronide]
- LPS-induced NO production [1]: significantly inhibited NO production in a concentration-dependent manner
- PMA-induced MMP-1 secretion [2]: significantly inhibited MMP-1 secretion in a concentration-dependent manner
- IL-1β-induced Collagen Type II Alpha 1 synthesis [3]: significantly increased Collagen Type II Alpha 1 synthesis in a concentration-dependent manner
- PMA-induced MMP-9 secretion [4]: significantly inhibited MMP-9 secretion in a concentration-dependent manner
- LPS-induced IL-1β mRNA expression [5]: significantly inhibited IL-1β mRNA expression in a concentration-dependent manner
- LPS-induced COX-2 mRNA expression [6]: significantly inhibited COX-2 mRNA expression
